15 compounds from patent publication US9353067B2, “Heterocyclic compounds and uses thereof in the treatment of sexual disorders” (ATIR Holding S.A., priority 2011, dated 2016) can be followed below.

A value given as a limit tells only on which side of the number the result lay.

Data set [1] can be described thus: Hydrolysis (half-life) of esterified derivatives of R-55 in human plasma. It is filed as in vitro ADME. The settings on record: for half-life at 0.19 mg/ml: fresh human plasma, hydrolysis of ester to R-55, human plasma, read-out: T1/2 in human plasma; for half-life at 0.19 mg/ml / % L-207 (hydrolysis of L-207 to R-55): 37° C.; for rate of hydrolysis (in words): human and rat plasma, comparison of acyl moieties; for % L-207 (hydrolysis of L-207 to R-55): human plasma. How it is done: (§1) 50 μl of dimethyl sulfoxide containing 0.2 mg of the tested derivative was added to 1 ml of fresh plasma (human or rat) in a sterile Eppendorf tube. The samples were then incubated at 37° C., and 100 μl samples were removed at various times, up to 120 minutes after incubation. The plasma samples were immediately added to 1 ml acetonitrile. After vigorous mixing by vortex, the samples were centrifuged for 10 minutes at 2000 rotations per minute at 4° C. 0.95 ml of the supernatant was then removed and stored at −20° C. until determination of the concentrations of R-55 and its esterified derivative by LCMS analysis.

Data set [2] in a line: Hydrolysis (half-life) of esterified derivatives of R-55 in rat plasma. The conditions noted are these: 37° C.; for half-life at 0.19 mg/ml: fresh rat plasma, hydrolysis of ester to R-55, rat plasma, read-out: T1/2 in rat plasma; for % L-207 (hydrolysis of L-207 to R-55): rat plasma. It is filed as in vitro ADME. The method, then: as §1
Data set [3] is described as follows: Solubility of L-207 in solvents. The class given is physicochemical. The text has this:
The compound was soluble in dimethylformamide, dimethyl sulfoxide, tetrahydrofuran, chloroform, dichloromethane, and HCl in diethyl ether, and non-soluble in water.

Data set [4] deals with D4.4 type dopamine receptor (Homo sapiens (Human), UniProt P21917). The experiment in a line: Competitive binding to D4.4 receptor ([3H]-YM-09151-2). The settings on record: human recombinant receptor in CHO cells, [3H]-YM-09151-2 0.3 nM. How it is done: R-55 (which comprises a 3-hydroxyphenyl moiety) and its isomers L-221 (comprising a 4-hydroxyphenyl moiety) and L-238 (comprising a 2-hydroxyphenyl moiety) were assayed for competitive binding to D2 SHORT and D4.4 type dopamine receptors, in order to assess their efficacy for treating sexual disorders. Both receptor types are expressed as human recombinant proteins in CHO cells, as described, for example, in Jarvis et al. (1973); Van Tol et al. (1991) and Van Tol et al. (1992).
D4.4 type dopamine receptor, sequence (P21917 whole entry): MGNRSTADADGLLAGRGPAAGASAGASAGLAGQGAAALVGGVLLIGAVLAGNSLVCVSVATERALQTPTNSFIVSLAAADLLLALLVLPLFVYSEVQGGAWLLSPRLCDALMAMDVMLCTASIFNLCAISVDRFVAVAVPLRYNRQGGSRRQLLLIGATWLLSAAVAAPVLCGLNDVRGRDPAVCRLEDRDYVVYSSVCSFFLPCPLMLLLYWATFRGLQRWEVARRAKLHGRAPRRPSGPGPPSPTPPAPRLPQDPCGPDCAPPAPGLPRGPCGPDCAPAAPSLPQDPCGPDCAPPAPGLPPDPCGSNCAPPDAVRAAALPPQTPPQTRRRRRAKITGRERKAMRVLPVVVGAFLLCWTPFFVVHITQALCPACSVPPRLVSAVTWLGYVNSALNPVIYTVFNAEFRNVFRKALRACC
Determination of binding to D4.4 receptor was performed using [^3H]-YM-09151-2 (70-87 Ci/mmol, 0.3 nM), as a radioligand, in the presence of various concentrations of the tested compound. Reactions were carried out in 50 mM TRIS-HCl (pH 7.4) containing 5 mM MgCl2, 5 mM EDTA, 5 mM KCl and 1.5 mM CaCl2, for 60 minutes at 22° C. The reaction was terminated by rapid vacuum filtration onto glass fiber filters. Radioactivity trapped onto the filters was determined (counted) and compared to control values in order to accurately evaluate any interaction of the tested compound(s) with the cloned dopamine D4.4 binding site.

Another data set has as its target PARP-1 (Homo sapiens (Human), UniProt P09874). The experiment in a line: Universal Chemiluminescent PARP Assay. The conditions noted are these: average results from two assays. It is filed as biochemical. The method, then:
In addition, R-55 and its hydrochloride salt were assayed for PARP (poly(ADP-ribose)polymerase) inhibitory activity, as some quinazolinone derivatives, particularly derivatives comprising quinazolinone linked via a three-carbon moiety to substituted pyridinyl and piperazinyl moieties, have been identified as potent PARP inhibitors [U.S. Patent Application Publication No. 2004/0077667; Iwashita et al., FEBS Lett 579:1389-1393(2005); Hattori et al., J Med Chem 47:4151-4154(2004)]. PARP plays a natural role in repair of DNA damage, and inhibition of PARP may lead to undesirable side effects in any treatment of a sexual disorder.
Inhibition of PARP-1 was assayed using a Universal Chemiluminescent PARP Assay (Trevigen, Inc.).
The tested compounds were diluted from 2.1 mg of powder in 25 μl of DMSO. The tested compounds were diluted to 100 μM in 1% DMSO/99% ethanol. 3-Aminobenzamide (3-AB), a commercially available weak PARP inhibitor, was used as a positive control. The activity of PARP was quantified as relative light units (RLU). Each of the tested compounds was assayed twice.
In Assay 1, the 100 μM stock solution was diluted to 40 μM in 1×PARP buffer. The compounds were then serially diluted down to 0.4 μM. Each tested compound was
further diluted 1:4 during the assay, so the final concentrations ranged from 10 μM to 0.1 μM.
In Assay 2, the 100 μM stock was added to 1×PARP buffer to prepare samples with concentrations ranging from 40 μM to 2 μM. A 10 μM stock solution was added to 1×PARP buffer to prepare samples with concentrations of 1 μM and 0.4 μM. Each tested compound was further diluted 1:4 during the assay, so the final concentrations ranged from 10 μM to 0.1 μM.

PARP-1, sequence (P09874 whole entry): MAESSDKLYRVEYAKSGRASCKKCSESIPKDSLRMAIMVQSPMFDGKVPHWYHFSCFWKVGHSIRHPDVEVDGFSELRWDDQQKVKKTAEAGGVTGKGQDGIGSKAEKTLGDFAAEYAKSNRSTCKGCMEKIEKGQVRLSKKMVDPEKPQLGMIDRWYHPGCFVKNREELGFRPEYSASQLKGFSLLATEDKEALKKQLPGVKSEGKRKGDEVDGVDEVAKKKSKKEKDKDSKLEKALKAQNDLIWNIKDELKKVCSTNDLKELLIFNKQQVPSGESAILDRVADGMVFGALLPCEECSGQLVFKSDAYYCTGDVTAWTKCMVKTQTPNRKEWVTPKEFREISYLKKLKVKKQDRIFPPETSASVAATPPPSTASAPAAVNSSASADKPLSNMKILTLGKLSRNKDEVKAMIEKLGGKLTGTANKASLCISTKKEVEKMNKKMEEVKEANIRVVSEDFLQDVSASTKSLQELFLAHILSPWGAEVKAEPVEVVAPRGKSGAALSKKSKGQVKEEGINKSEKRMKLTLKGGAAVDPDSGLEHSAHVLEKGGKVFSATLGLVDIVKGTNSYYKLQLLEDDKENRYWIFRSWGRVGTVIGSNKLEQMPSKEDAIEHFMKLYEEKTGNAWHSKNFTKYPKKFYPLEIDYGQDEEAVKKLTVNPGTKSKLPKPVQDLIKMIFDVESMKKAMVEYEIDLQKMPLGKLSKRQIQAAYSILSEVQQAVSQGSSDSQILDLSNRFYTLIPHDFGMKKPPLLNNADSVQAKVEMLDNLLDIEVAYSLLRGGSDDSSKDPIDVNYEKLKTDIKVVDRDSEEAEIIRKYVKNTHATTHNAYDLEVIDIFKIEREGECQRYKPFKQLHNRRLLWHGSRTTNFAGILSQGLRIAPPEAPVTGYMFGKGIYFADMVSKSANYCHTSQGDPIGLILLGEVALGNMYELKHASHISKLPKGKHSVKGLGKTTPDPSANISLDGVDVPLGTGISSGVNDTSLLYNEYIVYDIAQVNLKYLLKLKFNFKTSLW

Regarding `N#Cc1cccc(C(=O)Oc2cccc(N3CCN(Cc4nc5ccccc5c(=O)[nH]4)CC3)c2)c1` [Compound L-166], the half-life at 0.19 mg/ml in data set [1] stood at 480 min; in data set [2], 7.1 min.
Regarding `Cc1ccc(S(=O)(=O)Oc2cccc(N3CCN(Cc4nc5ccccc5c(=O)[nH]4)CC3)c2)cc1` [Compound L-163], in data set [1], the half-life at 0.19 mg/ml was over 1000 min and the “rate of hydrolysis (in words)” value is given as “considerably slower hydrolysis than carboxyl esters”. Moreover, the half-life at 0.19 mg/ml in data set [2] is over 1000 min.
For `Cc1ccccc1C(=O)Oc1cccc(N2CCN(Cc3nc4ccccc4c(=O)[nH]3)CC2)c1` [Compound L-199], the half-life at 0.19 mg/ml in data set [1] was over 1000 min; in data set [2], 44 min.
On to `O=C(Oc1cccc(N2CCN(Cc3nc4ccccc4c(=O)[nH]3)CC2)c1)c1ccc(F)cc1` [Compound L-209], for which, in data set [1], the half-life at 0.19 mg/ml came out at 470 min and the “rate of hydrolysis (in words)” value was “slower hydrolysis than exhibited by the corresponding non-substituted aryl”. Besides, the half-life at 0.19 mg/ml in data set [2] is 35 min.
As to `O=C(Oc1cccc(N2CCN(Cc3nc4ccccc4c(=O)[nH]3)CC2)c1)c1ccccc1` [Compound L-207], the half-life at 0.19 mg/ml in data set [1] came to 134 min; in data set [2], 29 min. In addition, the “rate of hydrolysis (in words)” value in data set [1] was “relatively rapid hydrolysis”. Further, the “% L-207 (hydrolysis of L-207 to R-55)” value turned out to be 97.54% in data set [1] (10 minutes); 89.21% in data set [1] (30 minutes); 77.11% in data set [1] (60 minutes); 64.67% in data set [1] (90 minutes); 52.91% in data set [1] (120 minutes); 99.49% in data set [2] (0 minutes). Also, the “% L-207 (hydrolysis of L-207 to R-55)” value in data set [2] (15 minutes) worked out at 74.08%; in data set [2] (30 minutes), 47.73%; in data set [2] (60 minutes) it was 6.61%; in data set [2] (90 minutes), 0.76%; in data set [2] (120 minutes), 0.41%. Besides, the “solubility in organic solvents” value in data set [3] (dimethylformamide, dimethyl sulfoxide, tetrahydrofuran, chloroform, dichloromethane, HCl in diethyl ether) is reported as “soluble”. Besides, the solubility in water result in data set [3] (water) was “non-soluble”.
In the case of `COc1ccc(CC(=O)Oc2cccc(N3CCN(Cc4nc5ccccc5c(=O)[nH]4)CC3)c2)cc1` [Compound L-170], the half-life at 0.19 mg/ml was determined as 280 min in data set [1] and 7.5 min in data set [2].
Take `COc1ccc(C(=O)Oc2cccc(N3CCN(Cc4nc5ccccc5c(=O)[nH]4)CC3)c2)cc1` [Compound L-162]: in data set [1], the half-life at 0.19 mg/ml stood at 377 min and the “rate of hydrolysis (in words)” value is reported as “slower hydrolysis than exhibited by the corresponding non-substituted aryl”. Besides, the half-life at 0.19 mg/ml in data set [2] was determined as 54 min.
For `COc1ccccc1C(=O)Oc1cccc(N2CCN(Cc3nc4ccccc4c(=O)[nH]3)CC2)c1` [Compound L-174], in that order: 455 min, “slower hydrolysis than exhibited by the corresponding non-substituted aryl” and 52 min.
For `CS(=O)(=O)Oc1cccc(N2CCN(Cc3nc4ccccc4c(=O)[nH]3)CC2)c1` [Compound L-164], in that order: over 1000 min, “considerably slower hydrolysis than carboxyl esters” and over 1000 min.
For `O=C(Oc1cccc(N2CCN(Cc3nc4ccccc4c(=O)[nH]3)CC2)c1)C12CC3CC(CC(C3)C1)C2` [Compound L-167], in that order: 750 min, “relatively slow hydrolysis” and 58 min.
In the case of `O=C(Oc1cccc(N2CCN(Cc3nc4ccccc4c(=O)[nH]3)CC2)c1)C1CCCCC1` [Compound L-169], the results for the half-life at 0.19 mg/ml in data set [1] and in data set [2] were 41 min and 4.7 min, respectively. Besides, the “rate of hydrolysis (in words)” value in data set [1] was “relatively rapid hydrolysis”.
The corresponding values for `CCC(=O)Oc1cccc(N2CCN(Cc3nc4ccccc4c(=O)[nH]3)CC2)c1` [Compound L-128] are 10 min, 0.31 min and “relatively rapid hydrolysis”.
For the compound `CCOc1ccc(C(=O)Oc2cccc(N3CCN(Cc4nc5ccccc5c(=O)[nH]4)CC3)c2)cc1` [Compound L-173], the half-life at 0.19 mg/ml was over 1000 min in data set [1] and 16.5 min in data set [2]. For the same compound, in data set [1], the “rate of hydrolysis (in words)” value was “considerably slower hydrolysis”.
`O=c1[nH]c(CN2CCN(c3ccc(O)cc3)CC2)nc2ccccc12` [Compound L-221, 2-((4-(4-hydroxyphenyl)piperazin-1-yl)methyl)quinazolin-4-one]: the IC50 (as a rule, the point on the concentration scale where inhibition reaches its midpoint) in data set [4] is about 30 µM.
Take `NC(=O)c1cccc(N)c1` [Compound 3-AB, 3-Aminobenzamide, reference compound]: the inhibition (as a rule, the drop in the measured response relative to a control, in per cent) at 5 µM on PARP-1 (5 μM) came to 21%. The same compound registered an inhibition at 10 µM at PARP-1 (10 μM) of 40%.
